Test results taken from patent publication US20120129870A1, “PIPERAZINYL DERIVATIVES USEFUL AS MODULATORS OF THE NEUROPEPTIDE Y2 RECEPTOR” (priority 2007, published 2012).

Target: T1, NPY Y2 receptor (Homo sapiens, UniProt P49146)
T1 sequence (P49146 1-381): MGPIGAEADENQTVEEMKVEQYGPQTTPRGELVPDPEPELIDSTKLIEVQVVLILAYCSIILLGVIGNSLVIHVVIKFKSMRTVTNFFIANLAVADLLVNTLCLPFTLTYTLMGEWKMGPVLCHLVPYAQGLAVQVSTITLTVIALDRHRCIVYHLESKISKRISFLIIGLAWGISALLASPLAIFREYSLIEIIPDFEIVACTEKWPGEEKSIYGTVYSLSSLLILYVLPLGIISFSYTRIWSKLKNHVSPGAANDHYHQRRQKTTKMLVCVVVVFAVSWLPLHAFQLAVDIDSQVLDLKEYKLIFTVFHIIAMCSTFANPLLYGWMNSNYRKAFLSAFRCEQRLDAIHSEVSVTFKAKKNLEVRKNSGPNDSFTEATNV
Assay: Neuropeptide Y2 radioligand binding assay ([125I]PYY, KAN-Ts membranes)
Design: endogenous in cells; host or cells: KAN-Ts cells (membrane preparation)
Settings: for IC50: KAN-Ts membranes endogenously expressing Y2, [125I]PYY (80 pM), 1 h at rt; for Ki: apparent Ki=IC50/(1+C/KD)
Protocol: KAN-Ts endogenously expressing Y2 receptors were used for the radioligand binding assay. Cells were grown to confluence on 150 cm^2 tissue culture plates, washed with phosphate-buffered saline (PBS), and scraped into 50 mL tubes. After centrifugation, the supernatant was aspirated, and the pellets frozen and stored at −80° C. Thawed pellets were homogenized with a polytron tissue grinder for 15 sec in 20 mM Tris-HCl, 5 mM EDTA. The homogenate was centrifuged at 800×g for 5 min and the collected supernatant was recentrifuged at 25000×g for 25 min. The resulting pellet was resuspended in binding buffer (20 mM HEPES, 120 mM NaCl, 0.22 mM KH2PO4, 1.3 mM CaCl2, 0.8 mM MgSO4). Membranes were incubated with [^125I]PYY (80 pM) in the presence or absence of test compound for 1 h at rt. The reaction was stopped by filtration through GF/C filter plates pre-soaked in 0.3% polyethylenimine and subsequently washed with Tris 50 mM, 5 mM EDTA buffer. Plates were dried for 1 h in a 55° C. oven, scintillation fluid was added and the radioactivity was counted in a Packard TopCount. Specific binding to the NPY receptor subtypes was determined by radioactivity that was bound in the presence of […]. Each binding experiment was repeated three to eight times, each in duplicate. IC50 values (i.e. concentration of unlabelled peptide or antagonist required to compete for 50% of specific binding to the radioligand) were calculated using the GraphPad Prism software (GraphPad Software Inc., San Diego Calif.) with a fit to a sigmoidal dose response curve. Apparent K, values were calculated as Ki=IC50/(1+C/KD), where C is concentration of the radioligand.

| IC50 [µM] | Ki [µM] | SMILES |
| --- | --- | --- |
| 1.4 | – | Cc1cc(NC(=O)C2CCC2)ccc1N1CCN(C(c2ccccc2)c2ncco2)CC1 (stereo not shown) [Compound 76, Cyclobutanecarboxylic acid {3-methyl-4-[4-(oxazol-2-yl-phenyl-methyl)-piperazin-1-yl]-phenyl}-amide] |
| 0.33 | – | CCC(CC)C(=O)Nc1ccc(N2CCN(C(c3ccc(F)cc3)c3ccc(F)cc3)CC2)c(F)c1 [Compound 12, N-(4-{4-[Bis-(4-fluoro-phenyl)-methyl]-piperazin-1-yl}-3-fluoro-phenyl)-2-ethyl-butyramide] |
| 0.065 | – | CCC(CC)C(=O)Nc1ccc(N2CCN(C(c3ccc(OC(F)(F)F)cc3)c3noc(C)n3)CC2)c(F)c1 (stereo not shown) [Compound 281] |
| 0.035 | – | CCC(CC)C(=O)Nc1ccc(N2CCN(C(c3ccccc3)c3nc(C(C)C)no3)CC2)c(F)c1 (stereo not shown) [Compound 241] |
| – | 0.034 | N#Cc1cc(NC(=O)C2CC2)ccc1N1CCN(C(c2ccccc2)c2ccncc2)CC1 (stereo not shown) [Compound 322, Cyclopropanecarboxylic acid {3-cyano-4-[4-(phenyl-pyridin-4-yl-methyl)-piperazin-1-yl]-phenyl}-amide] |
| 1.7 | – | Cc1cc(NC(=O)C2CC2)ccc1N1CCN(C(c2ccccc2)c2ncco2)CC1 (stereo not shown) [Compound 81, Cyclopropanecarboxylic acid {3-methyl-4-[4-(oxazol-2-yl-phenyl-methyl)-piperazin-1-yl]-phenyl}amide] |
| 0.43 | – | N#Cc1cc(NC(=O)C2CCCCC2)ccc1N1CCN(C(c2ccccc2)c2ncco2)CC1 (stereo not shown) [Compound 112, Cyclohexanecarboxylic acid {3-cyano-4-[4-(oxazol-2-yl-phenyl-methyl)-piperazin-1-yl]-phenyl}-amide] |
| 0.32 | – | CCC(CC)C(=O)Nc1ccc(N2CCN(C(c3ccc(OC)cc3)c3ncco3)CC2)c(F)c1 (stereo not shown) [Compound 140, 2-Ethyl-N-(3-fluoro-4-{4-[(4-methoxy-phenyl)-oxazol-2-yl-methyl]-piperazin-1-yl}-phenyl)-butyramide] |
| 0.15 | – | CCC(CC)C(=O)Nc1ccc(N2CCN(C(c3ccccn3)c3ncco3)CC2)c(C#N)c1 (stereo not shown) [Compound 155, N-{3-Cyano-4-[4-(oxazol-2-yl-pyridin-2-yl-methyl)-piperazin-1-yl]-phenyl}-2-ethyl-butyramide] |
| 0.41 | – | CCC(CC)C(=O)Nc1ccc(N2CCN(C(c3ncco3)C3CCC3)CC2)c(F)c1 (stereo not shown) [Compound 116, N-{4-[4-(Cyclobutyl-oxazol-2-yl-methyl)-piperazin-1-yl]-3-fluoro-phenyl}-2-ethyl-butyramide] |
| 0.18 | – | CCCC(=O)Nc1ccc(N2CCN(C(c3ccccc3)c3ncco3)CC2)c(C#N)c1 (stereo not shown) [Compound 98, N-{3-Cyano-4-[4-(oxazol-2-yl-phenyl-methyl)-piperazin-1-yl]-phenyl}-butyramide] |
| 0.43 | – | CCC(CC)C(=O)Nc1ccc(N2CCN(C(c3ncco3)C3CCCCC3)CC2)c(F)c1 (stereo not shown) [Compound 122, N-{4-[4-(Cyclohexyl-oxazol-2-yl-methyl)-piperazin-1-yl]-3-fluoro-phenyl}-2-ethyl-butyramide] |
| 0.79 | – | CCC(CC)C(=O)Nc1ccc(N2CCN(C(c3ccccn3)c3ncco3)CC2)c(F)c1 (stereo not shown) [Compound 156, 2-Ethyl-N-{3-fluoro-4-[4-(oxazol-2-yl-pyridin-2-yl-methyl)-piperazin-1-yl]-phenyl}-butyramide] |
| > 10 | – | CC(=O)Nc1ccc(N2CCN(C(c3ccccc3)c3ncco3)CC2)c(F)c1 (stereo not shown) [Compound 104, N-{3-Fluoro-4-[4-(oxazol-2-yl-phenyl-methyl)-piperazin-1-yl]-phenyl}-acetamide] |
| 0.31 | – | CCC(CC)C(=O)Nc1ccc(N2CCN(C(c3ncco3)C3CCCC3)CC2)c(F)c1 (stereo not shown) [Compound 117, N-{4-[4-(Cyclopentyl-oxazol-2-yl-methyl)-piperazin-1-yl]-3-fluoro-phenyl}-2-ethyl-butyramide] |
| 0.12 | – | CCC(CC)C(=O)Nc1ccc(N2CCN(C(c3ccccc3)c3noc(C(F)(F)F)n3)CC2)c(F)c1 (stereo not shown) [Compound 234, 2-Ethyl-N-(3-fluoro-4-{4-[phenyl-(5-trifluoromethyl-[1,2,4]-oxadiazol-3-yl)-methyl]-piperazin-1-yl}-phenyl)-butyramide] |

| IC50 [µM] | Ki [µM] | SMILES |
| --- | --- | --- |
| 0.77 | – | CCC(CC)C(=O)Nc1ccc(N2CCN(C(c3ccc(F)cc3)c3ncco3)CC2)c(F)c1 (stereo not shown) [Compound 120, 2-Ethyl-N-(3-fluoro-4-{4-[(4-fluoro-phenyl)-oxazol-2-yl-methyl]-piperazin-1-yl}-phenyl)-butyramide] |
| 0.08 | – | O=C(Nc1ccc(N2CCN(C(c3ccccc3)c3ccccc3)CC2)c(F)c1)[C@H]1CCOC1 (stereo in doubt) [Compound 14, Tetrahydro-furan-3-carboxylic acid [4-(4-benzhydryl-piperazin-1-yl)-3-fluoro-phenyl]-amide] |
| 0.26 | – | CCC(CC)C(=O)Nc1ccc(N2CCN(C(c3ccc(C#N)cc3)c3ncco3)CC2)c(F)c1 (stereo not shown) [Compound 146, N-(4-{4-[(4-Cyano-phenyl)-oxazol-2-yl-methyl]-piperazin-1-yl}-3-fluoro-phenyl)-2-ethyl-butyramide] |
| 0.25 | – | CCC(CC)C(=O)Nc1ccc(N2CCN(C(c3ccc(F)cc3)C3CCC3)CC2)c(F)c1 (stereo not shown) [Compound 106, N-(4-{4-[Cyclobutyl-(4-fluoro-phenyl)-methyl]-piperazin-1-yl}-3-fluoro-phenyl)-2-ethyl-butyramide] |
| 0.22 | – | CCC(CC)C(=O)Nc1ccc(N2CCN(C(c3ccccc3)c3ncno3)CC2)c(F)c1 (stereo not shown) [Compound 231, 2-Ethyl-N-{3-fluoro-4-[4-([1,2,4]-oxadiazol-5-yl-phenyl-methyl)-piperazin-1-yl]-phenyl}-butyramide] |
| 0.38 | – | CCC(CC)C(=O)Nc1ccc(N2CCN(C(C(C)=O)c3ccccc3)CC2)c(F)c1 (stereo not shown) [Compound 232, 2-Ethyl-N-{3-fluoro-4-[4-(2-oxo-1-phenyl-propyl)-piperazin-1-yl]-phenyl}-butyramide] |
| 0.27 | – | O=C(Nc1ccc(N2CCN(C(c3ccccc3)c3ncco3)CC2)c(F)c1)[C@@H]1CCOC1 (stereo in doubt) [Compound 92, Tetrahydro-furan-3-carboxylic acid {3-fluoro-4-[4-(oxazol-2-yl-phenyl-methyl)-piperazin-1-yl]-phenyl}-amide] |
| – | 0.15 | CCC(CC)C(=O)Nc1ccc(N2CCN(C(c3ccc(F)cc3)c3ccc(F)cc3)CC2)c(C#N)c1 [Compound 307, N-(4-{4-[Bis(4-fluorophenyl)methyl]piperazin-1-yl}-3-cyanophenyl)-2-ethylbutanamide] |
| 0.054 | – | CC(C)C(=O)Nc1ccc(N2CCN(C(c3ccccc3)c3ncco3)CC2)c(C#N)c1 (stereo not shown) [Compound 87, N-{3-Cyano-4-[4-(oxazol-2-yl-phenyl-methyl)-piperazin-1-yl]-phenyl}-isobutyramide] |
| 0.1 | – | N#Cc1cc(NC(=O)C2CCC2)ccc1N1CCN(C(c2ccccc2)c2ncco2)CC1 (stereo not shown) [Compound 95, Cyclobutanecarboxylic acid {3-cyano-4-[4-(oxazol-2-yl-phenyl-methyl)-piperazin-1-yl]-phenyl}-amide] |
| – | 0.74 | Cc1noc(C)c1C(=O)Nc1ccc(N2CCN(C(c3ccc(F)cc3)c3ccc(F)cc3)CC2)c(C#N)c1 [Compound 309, 3,5-Dimethyl-isoxazole-4-carboxylic acid (4-{4-[bis-(4-fluoro-phenyl)methyl]-piperazin-1-yl}-3-cyano-phenyl)-amide] |
| 1.5 | – | CCC(CC)C(=O)Nc1ccc(N2CCN(C(c3ncco3)C3CC3)CC2)c(F)c1 (stereo not shown) [Compound 66, N-{4-[4-(Cyclopropyl-oxazol-2-yl-methyl)-piperazin-1-yl]-3-fluoro-phenyl}-2-ethyl-butyramide] |
| > 10 | – | CC(=O)Nc1ccc(N2CCN(C(c3ccccc3)c3ncco3)CC2)c(C#N)c1 (stereo not shown) [Compound 103, N-{3-Cyano-4-[4-(oxazol-2-yl-phenyl-methyl)-piperazin-1-yl]-phenyl}-acetamide] |
| 3.6 | – | N#Cc1cc(NC(=O)C2CCC(F)(F)CC2)ccc1N1CCN(C(c2ccccc2)c2ncco2)CC1 (stereo not shown) [Compound 109, 4,4-Difluoro-cyclohexanecarboxylic acid {3-cyano-4-[4-(oxazol-2-yl-phenyl-methyl)-piperazin-1-yl]-phenyl}-amide] |
| 0.071 | – | CCC(CC)C(=O)Nc1ccc(N2CCN(C(c3ccccc3)c3nc(-c4ccccc4)no3)CC2)c(F)c1 (stereo not shown) [Compound 242, 2-Ethyl-N-(3-fluoro-4-{4-[phenyl-(3-phenyl-[1,2,4]-oxadiazol-5-yl)-methyl]-piperazin-1-yl}-phenyl)-butyramide] |
